# According to patent US7220756B2, “N-sulfonylheterocyclopyrrolyl-alkylamine compounds as 5-hydroxytryptamine-6 ligands” (Wyeth, priority 2003, dated 2007):
# Target: T1, human cloned 5-HT6 receptors (Homo sapiens, UniProt P50406)
# T1 construct: expressed in transfected cells; host or cells: HeLa cells
# Assay: 5-HT6 binding affinity, [3H]-LSD displacement
# Conditions: membranes of Hela cells expressing human cloned 5-HT6 receptors; [3H]-LSD 3.0 nM; 120 min, room temperature; read-out: 5-HT6 Binding Ki
# Procedure: The affinity of test compounds for the serotonin 5-HT6 receptor is evaluated in the following manner. Cultured Hela cells expressing human cloned 5-HT6 receptors are harvested and centrifuged at low speed (1,000×g) for 10.0 min to remove the culture media. The harvested cells are suspended in half volume of fresh physiological phosphate buffered saline solution and recentrifuged at the same speed. This operation is repeated. The collected cells are then homogenized in ten volumes of 50 mM Tris.HCl (pH 7.4) and 0.5 mM EDTA. The homogenate is centrifuged at 40,000×g for 30.0 min and the precipitate is collected. The obtained pellet is resuspended in 10 volumes of Tris.HCl buffer and recentrifuged at the same speed. The final pellet is suspended in a small volume of Tris.HCl buffer and the tissue protein content is determined in aliquots of 10–25 μl volumes. Bovine Serum Albumin is used as the standard in the protein determination according to the method described in Lowry et al., J. Biol. Chem., 193:265 (1951). The volume of the suspended cell membranes is adjusted to give a tissue protein concentration of 1.0 mg/ml of suspension. The prepared membrane suspension (10 times concentrated) is aliquoted in 1.0 ml volumes and stored at −70° C. until used in subsequent binding experiments.
# The reaction is allowed to proceed in the dark for 120 min at room temperature, at which time, the bound ligand-receptor complex is filtered off on a 96 well unifilter with a Packard Filtermate® 196 Harvester. The bound complex caught on the filter disk is allowed to air dry and the radioactivity is measured in a Packard TopCount® equipped with six photomultiplier detectors, after the addition of 40.0 μl Microscint®−20 scintillant to each shallow well. The unifilter plate is heat-sealed and counted in a PackardTopCount® with a tritium efficiency of 31.0%.
# Binding in the presence of varying concentrations of test compound is expressed as a percentage of specific binding in the absence of test compound. The results are plotted as log % bound versus log concentration of test compound. […] A linear regression line of data points is plotted, from which the IC50 value is determined and the Ki value is determined based upon the following equation: Ki=IC50/(1+L/KD) where L is the concentration of the radioactive ligand used and KD is the dissociation constant of the ligand for the receptor, both expressed in nM.
# T1 sequence (P50406 whole entry): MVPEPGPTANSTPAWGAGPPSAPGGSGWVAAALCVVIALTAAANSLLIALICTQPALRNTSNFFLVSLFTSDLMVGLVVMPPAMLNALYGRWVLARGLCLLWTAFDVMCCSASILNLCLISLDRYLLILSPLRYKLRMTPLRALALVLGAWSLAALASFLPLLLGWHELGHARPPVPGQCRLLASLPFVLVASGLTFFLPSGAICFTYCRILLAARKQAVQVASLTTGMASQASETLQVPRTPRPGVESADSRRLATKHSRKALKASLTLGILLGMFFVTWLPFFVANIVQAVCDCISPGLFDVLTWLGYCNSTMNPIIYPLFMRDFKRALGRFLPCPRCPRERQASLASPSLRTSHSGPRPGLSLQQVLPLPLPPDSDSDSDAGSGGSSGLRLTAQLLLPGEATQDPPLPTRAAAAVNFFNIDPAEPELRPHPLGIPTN
row,Ki [nM],Molecule
1,3 ± 0.2,CN(C)CCc1cn(S(=O)(=O)c2cccc(C(F)(F)F)c2)c2ccsc12 [Example 71]
2,3.7 ± 0.1,"COc1ccc(S(=O)(=O)n2cc(CCN(C)C)c3ccsc32)cc1 [Example 63, N,N-dimethyl-2-{[6-(4-methoxyphenyl)sulfonyl]-6H-thieno[2,3-b]pyrrol-4-yl}ethyl-amine]"
3,8.9 ± 0.7,"NCCc1cn(S(=O)(=O)c2cccc(C(F)(F)F)c2)c2sccc12 [Example 9, 2-{[6-(3-trifluoromethyl)phenylsulfonyl]-6H-thieno[2,3-b]pyrrol-4-yl}ethylamine]"
4,9.2 ± 1,NCCc1cn(S(=O)(=O)c2ccc3ccccc3c2)c2ccsc12 [Example 66]
5,24.7 ± 1.7,"COc1ccc(S(=O)(=O)n2cc(CCN)c3ccsc32)cc1 [Example 33, 2-{[6-(4-methoxyphenyl)sulfonyl]-6H-thieno[2,3-b]pyrrol-4-yl}ethylamine]"
6,1.2 ± 0.1,CN(C)CCc1cn(S(=O)(=O)c2ccccc2)c2ccsc12 [Example 70]
7,20 ± 2,NCCc1cn(S(=O)(=O)c2cccs2)c2sccc12 [Example 26]
8,1.2 ± 0.1,"CN(C)CCc1cn(S(=O)(=O)c2ccccc2)c2sccc12 [Example 38, N,N-Dimethyl-2-[6-(phenylsulfonyl)-6H-thieno[2,3-b]pyrrol-4-yl]ethylamine]"
9,32.7 ± 4.1,"NCCc1cn(S(=O)(=O)c2cc(Cl)c(Cl)s2)c2sccc12 [Example 27, 2-{[6-(4,5-dichlorothien-2-yl)sulfonyl]-6H-thieno[2,3-b]pyrrol-4-yl}ethylamine]"
10,0.8 ± 0.1,COc1cccc(S(=O)(=O)n2cc(CCN(C)C)c3ccsc32)c1 [Example 44]
11,2.1 ± 0.1,CN(C)CCc1cn(S(=O)(=O)c2ccccc2F)c2ccsc12 [Example 78]
12,4.7 ± 0.1,"CN(C)CCc1cn(S(=O)(=O)c2ccccc2C(F)(F)F)c2sccc12 [Example 62, N,N-dimethyl-2-{{[6-(2-trifluoromethyl)phenyl]sulfonyl}-6H-thieno[2,3-b]pyrrol-4-yl}ethylamine]"

row,Molecule,Ki [nM]
1,"N,N-dimethyl-2-{[6-(3-chlorophenyl)sulfonyl]-6H-thieno[2,3-b]pyrrol-4-yl}ethylamine [Example 40]",1.6 ± 0.3
2,"N,N-dimethyl-2-{[6-(2,6-dichloroimidazo[2,1-b]thiazol-5-yl)sulfonyl]-6H-thieno[2,3-b]pyrrol-4-yl}ethylamine [Example 51]",6.8 ± 0.6
3,"2-{[6-(3-Chlorophenyl)sulfonyl]-6H-thieno[2,3-b]pyrrol-4-yl}ethylamine [Example 10]",4.3 ± 0.5
4,"CN(C)CCc1cn(S(=O)(=O)c2cccc3cccnc23)c2sccc12 [Example 61, N,N-dimethyl-2-{[6-(8-quinolinyl)sulfonyl]-6H-thieno[2,3-b]pyrrol-4-yl}ethylamine]",4.7 ± 0.1
5,"N,N-dimethyl-2-{[6-(2-chlorophenyl)sulfonyl]-6H-thieno[2,3-b]pyrrol-4-yl}ethylamine [Example 48]",5.5 ± 0.5
6,"CN(C)CCc1cn(S(=O)(=O)c2cccc3ccccc23)c2sccc12 [Example 58, N,N-dimethyl-2-{[6-(1-naphthyl)sulfonyl]-6H-thieno[2,3-b]pyrrol-4-yl}ethylamine]",3.6 ± 0.1
7,"N,N-dimethyl-2-{[6-(3-chloro-2-methylphenyl)sulfonyl]-6H-thieno[2,3-b]pyrrol-4-yl}-ethylamine [Example 64]",5.9 ± 1.4
8,"2-{[4-(3-chlorophenyl)sulfonyl]-4H-thieno[3,2-b]pyrrol-6-yl}ethylamine [Example 65]",2.7 ± 0.1
9,"2-{[6-(3-chloro-2-methylphenyl)sulfonyl]-6H-thieno[2,3-b]pyrrol-4-yl}ethylamine [Example 34]",13.3 ± 1.5
10,"N,N-dimethyl-2-{[6-(5-chlorothien-2-yl)sulfonyl]-6H-thieno[2,3-b]pyrrol-4-yl]-ethyl}-amine [Example 41]",1.3 ± 0.1
11,"2-{[4-(2-chlorophenyl)sulfonyl]-4H-thieno[3,2-b]pyrrol-6-yl}ethylamine [Example 69]",2.7 ± 0.2
